# Measurements as given in article PMC11080064, “Inositol Hexaphosphate as an Inhibitor and Potential Regulator of p47^phox Membrane Anchoring” (Biochemistry, 2024).
# Entries after “also recorded” stand apart in the source; their conditions may differ.
# Key:
# [1] = biological target: T1, p47phox-PX (PX domain of p47phox, residues 1-128) (Homo sapiens, UniProt P14598); assay: 1H-15N-HSQC NMR titration (chemical shift perturbation) of inositol phosphates; assay type: binding; conditions: for Kd / binding observed by NMR (CSPs): 100 μM p47phox-PX; for Kd: pH 6.0, 25 °C, read-out: Kd (binding affinity, global fit of CSPs); for binding observed by NMR (CSPs): up to 64 mM
# T1 construct: poly histidine tag (TEV cleavable) (cleaved yes); made in house; host or cells: E. coli BL21 (DE3)
# T1 sequence (P14598 1-128): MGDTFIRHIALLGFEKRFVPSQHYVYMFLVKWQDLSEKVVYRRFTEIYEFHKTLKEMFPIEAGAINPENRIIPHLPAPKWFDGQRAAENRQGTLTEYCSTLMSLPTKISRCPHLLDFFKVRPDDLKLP
# Experimental: All NMR samples were prepared with either ^15N- or ^15N–^13C-p47^phox-PX in 50 mM Bis-Tris (pH 6.0), 100 mM NaCl, 1 mM DTT, 0.02% (v/v) sodium azide and 10% D2O as a lock solvent. Protein concentration was typically 100 μM in each sample, as confirmed by the Bradford Assay. NMR experiments were collected on a 600 MHz Bruker AVANCE III equipped with a TXI triple resonance probe at 25 °C. NMR assignments of the PX domain were transferred from a previous publication,[24] then were confirmed, and expanded by collection of 3D HNCA, HN(CA)CB, and CBCA(CO)NH experiments on a 700 MHz Bruker AVANCE III at 25 °C.[41]−[43] Standard Bruker pulse sequences were used with the HNCA collected with 64 scans and 1024 × 40 × 48 total points, the HN(CA)CB collected with 64 scans and 1024 × 40 × 64 total points, and the CBCA(CO)NH collected with 32 scans and 1024 × 40 × 96 total points. NMR data was processed with NMRPipe[44] and analyzed using NMRFAM-Sparky.[45]
# For NMR titrations, inositol phosphate stocks were prepared in the same NMR buffer, the IP6 stock was pH adjusted, and added in 0.25, 0.5, 2, and 4 to 1 mol equiv to the PX domain of p47^phox. Due to the high buffering capacity of IPs, pH values were checked during titrations and corrected as needed. ^1H–^15N-HSQC spectra were collected at each titration point, using a standard Bruker pulse sequence, collected with 2048 × 100 total points and 16 or 32 scans. Chemical shift perturbations (CSPs) were calculated using weighted chemical shifts in the following formula[46]: [drawing 1] where Δ^1H and Δ^15N represent the changes in the ^1H and ^15N chemical shifts for each resonance. To calculate the binding affinity of IPs to the PX domain of p47^phox, residues with ≥0.08 CSP at the highest titration point were fit to the following formula, which accounts for ligand depletion, on GraphPad Prism 10: [drawing 2] where CSP denotes the CSP of the individual residue at each IP concentration ([L]), Dmax represents the CSP at saturation, [P] represents the concentration of p47^phox-PX, and Kd represents the dissociation constant of p47^phox-PX and IP. The formula was initially fit to each residue individually and any residue with R^2 < 0.95 was removed before fitting the data globally to determine the overall binding affinity.
# p47phox-PX [2] = biological target: T2, p47phox-PX (Homo sapiens, UniProt P14598); assay: Fluorescence polarization competition against BODIPY-PI(3,4)P2 tracer; assay type: binding
# T2 construct: poly histidine tag (TEV cleavable) (cleaved yes); made in house; host or cells: E. coli BL21 (DE3)
# T2 sequence (P14598 1-128): T1 sequence (P14598 1-128)
# Experimental: All fluorescence polarization (FP) experiments were performed using BODIPY-FL diC6–PI(3,4)P2 [Echelon Biosciences (Salt Lake City, UT)] as the reporting tracer. […] Each sample contained 50 nM BODIPY-PI(3,4)P2 and was plated in triplicate on a black half area 96-well microplate [Corning (Corning, NY)]. The plate was centrifuged at 500 rpm for 30 s prior to analysis on a SpectraMax M5 [Molecular Devices (San Jose, CA)]. Measurements were taken using a monochromator with fixed excitation and emission wavelengths of 485 and 525 nm, respectively, and a cutoff of 515 nm. Raw data was converted to millipolarization (mP) using the SoftMax Pro software [Molecular Devices (San Jose, CA)]. mP values were then converted to anisotropy (A) using the following formula: [drawing 3]
# A 2-fold dilution series of IP was performed, ranging from 50–0.05 μM IP in the presence of 2.5 μM p47^phox-PX and 50 nM BODIPY-PI(3,4)P2. Samples were plated in triplicate on a black half area microplate, centrifuged at 500 rpm for 30 s, and incubated for 1 h prior to analysis. The data was converted to anisotropy and fit to a four-parameter, variable slope, dose–response equation on GraphPad Prism 10. The IC50 from the dose–response equation was converted to an inhibitory constant (Ki) using a IC50-to-Ki calculator, which incorporated the following formula[47]: [drawing 5] where I50 and L50 are the free concentrations of IP and BODIPY-PI(3,4)P2, respectively, at 50% inhibition, and P0 is the free concentration of p47^phox-PX in the absence of IP.
# p47phox-PX [3] = biological target: T2, p47phox-PX; assay: Fluorescence polarization direct binding of BODIPY-PI(3,4)P2 tracer; conditions: 50 nM tracer, 10-0.02 μM protein, pH 7.0, 1 mM MgCl2
# Experimental: All fluorescence polarization (FP) experiments were performed using BODIPY-FL diC6–PI(3,4)P2 [Echelon Biosciences (Salt Lake City, UT)] as the reporting tracer. To determine the binding affinity of the fluorophore to p47^phox-PX, a series of 2-fold dilutions, ranging from 10–0.02 μM protein, were performed in 50 mM Bis-Tris (pH 7.0), 100 mM NaCl, 1 mM MgCl2, and 1 mM DTT. Each sample contained 50 nM BODIPY-PI(3,4)P2 and was plated in triplicate on a black half area 96-well microplate [Corning (Corning, NY)]. The plate was centrifuged at 500 rpm for 30 s prior to analysis on a SpectraMax M5 [Molecular Devices (San Jose, CA)]. Measurements were taken using a monochromator with fixed excitation and emission wavelengths of 485 and 525 nm, respectively, and a cutoff of 515 nm. Raw data was converted to millipolarization (mP) using the SoftMax Pro software [Molecular Devices (San Jose, CA)]. mP values were then converted to anisotropy (A) using the following formula: [drawing 3] […]
# [4] = biological target: T3, p47phox-PX binding to PI(3,4)P2-containing liposomes (Homo sapiens, UniProt P14598); assay: Dansyl-PE liposome FRET assay of membrane anchoring; assay type: biochemical; conditions: 2.5 μM p47phox-PX, 125 μM accessible lipid, 79:15:1:5 POPC:POPE:diC16-PI(3,4)P2:Dansyl-PE, pH 7.0, 1 mM MgCl2; read-out: apparent IC50 of inhibition of membrane anchoring
# T3 construct: poly histidine tag (TEV cleavable) (cleaved yes); made in house; host or cells: E. coli BL21 (DE3)
# T3 sequence (P14598 1-128): T1 sequence (P14598 1-128)
# Experimental: To ensure proper liposome formation, phosphatidylinositol stocks were protonated prior to use adapted from a previously published protocol.[28] In brief, lyophilized PI(3,4)P2 lipids were resuspended in CHCl3 and dried under nitrogen. Lipids were then further dried under a speed vacuum for 1 h followed by a resuspension into 2:1:0.01 CHCl3: MeOH: 1 M HCl. The suspension was allowed to sit at room temperature for 15 min before the drying process was repeated. Lipids were then reconstituted in 3:1 CHCl3: MeOH and dried as above. The process was repeated with CHCl3 before a final resuspension into CHCl3 at the desired concentration and storage of protonated stocks at −80 °C. […]
# The FRET assay was performed based on a previously published protocol,[48] where intrinsic tryptophan fluorescence within the PX domain was utilized as the donor fluorophore and Dansyl-PE incorporated within liposomes as the acceptor fluorophore. […] Samples were mixed for 40 s after each IP6 addition and were analyzed on an OLIS 14 TB NIR/CD Spectrophotometer [Olis (Bogart, GA)] equipped with a UV/vis photon counter 230–870 nm fluorescence detector. […] Each titration point measurement was integrated over 10 s and measured in triplicate. […]
molecule,measurement,setting,value
O=P(O)(O)OC1[C@H](O)[C@H](O)C(O)[C@H](O)[C@H]1O (stereo partly shown) [inositol-1-phosphate],Kd,[1]; NMR titration,870 ± 120 µM
O[C@H]1[C@H](O)[C@@H](O)[C@H](O)[C@@H](O)[C@H]1O [Inositol],binding observed by NMR (CSPs),[1],no significant CSPs were observed
same,binding observed by NMR (CSPs),[1]; listed as inositol,no significant binding
"O=P(O)(O)O[C@@H]1[C@@H](OP(=O)(O)O)[C@H](OP(=O)(O)O)[C@H](O)[C@H](OP(=O)(O)O)[C@H]1OP(=O)(O)O [IP5, inositol (1,3,4,5,6) pentakisphosphate]","competition with BODIPY-PI(3,4)P2 binding","p47phox-PX [2]; up to 50 μM, 2.5 μM p47phox-PX, 50 nM tracer",no apparent capacity to inhibit; also recorded: no significant observed competition
same,Kd,[1]; NMR titration,58 ± 6 µM
"BODIPY-FL diC6–PI(3,4)P2 [BODIPY-PI(3,4)P2]",Kd,p47phox-PX [3],0.35 ± 0.05 µM
"O=P(O)(O)O[C@H]1[C@H](O)[C@@H](O)[C@H](OP(=O)(O)O)[C@@H](OP(=O)(O)O)[C@H]1O [IP3, inositol (1,3,4) trisphosphate]",Kd,[1]; NMR titration,200 ± 50 µM
"O=P(O)(O)O[C@H]1[C@H](OP(=O)(O)O)[C@@H](OP(=O)(O)O)[C@H](OP(=O)(O)O)[C@@H](OP(=O)(O)O)[C@H]1OP(=O)(O)O [IP6, inositol hexaphosphate]",IC50,[4],1.3 ± 0.3 µM
same,Ki,"p47phox-PX [2]; 2.5 μM p47phox-PX, 50 nM BODIPY-PI(3,4)P2, pH 7.0, 1 mM MgCl2, read-out: Ki (inhibition constant, converted from IC50)",0.6 ± 0.2 µM
same,effect of lower pH on inhibition / Ki,"p47phox-PX [2]; pH 6 with 1 mM MgCl2, compared to pH 7.0",no significant change in Ki; also recorded: only a minor effect
same,effect of absence of MgCl2 on inhibition / Ki,p47phox-PX [2]; pH 6 with no MgCl2,no significant change in Ki; also recorded: little to no effect
same,approximate affinity inferred from intermediate-exchange line-broadening,"[1]; NMR titration, line-broadening precluded Kd fit",low-μM or lower affinity
"O=P(O)(O)O[C@H]1[C@H](O)[C@@H](OP(=O)(O)O)[C@H](OP(=O)(O)O)[C@@H](OP(=O)(O)O)[C@H]1O [IP4, inositol (1,3,4,5) tetrakisphosphate]",Kd,[1]; NMR titration,100 ± 11 µM
